In ChEMBL document CHEMBL3734744, “Synthesis, 3D pharmacophore, QSAR and docking studies of novel quinazoline derivatives with nitric oxide release moiety as preferential COX-2 inhibitors” (Medchemcomm, 2015):

What was measured:
Rattus norvegicus [1] = test: Antiinflammatory activity in Sprague-Dawley rat assessed as inhibition of carrageenan-induced paw edema at 80 mg/kg, po administered 30 mins prior to carrageenan challenge measured at 1 hr by plethysmometer; type: functional
Rattus norvegicus [2] = test: Antiinflammatory activity in Sprague-Dawley rat assessed as inhibition of carrageenan-induced paw edema at 80 mg/kg, po administered 30 mins prior to carrageenan challenge measured at 2 hrs by plethysmometer; type: functional
Rattus norvegicus [3] = test: Antiinflammatory activity in Sprague-Dawley rat assessed as inhibition of carrageenan-induced paw edema at 80 mg/kg, po administered 30 mins prior to carrageenan challenge measured at 3 hrs by plethysmometer; type: functional
Rattus norvegicus [4] = test: Antiinflammatory activity in Sprague-Dawley rat assessed as inhibition of carrageenan-induced paw edema at 80 mg/kg, po administered 30 mins prior to carrageenan challenge measured at 3 hrs by plethysmometer relative to meloxicam; type: functional
[5] = molecular target: T1, Prostaglandin G/H synthase 1 (Ovis aries, UniProt P05979); test: Inhibition of ovine COX1 after 5 mins by enzyme immuno assay
T1 sequence (P05979 whole entry): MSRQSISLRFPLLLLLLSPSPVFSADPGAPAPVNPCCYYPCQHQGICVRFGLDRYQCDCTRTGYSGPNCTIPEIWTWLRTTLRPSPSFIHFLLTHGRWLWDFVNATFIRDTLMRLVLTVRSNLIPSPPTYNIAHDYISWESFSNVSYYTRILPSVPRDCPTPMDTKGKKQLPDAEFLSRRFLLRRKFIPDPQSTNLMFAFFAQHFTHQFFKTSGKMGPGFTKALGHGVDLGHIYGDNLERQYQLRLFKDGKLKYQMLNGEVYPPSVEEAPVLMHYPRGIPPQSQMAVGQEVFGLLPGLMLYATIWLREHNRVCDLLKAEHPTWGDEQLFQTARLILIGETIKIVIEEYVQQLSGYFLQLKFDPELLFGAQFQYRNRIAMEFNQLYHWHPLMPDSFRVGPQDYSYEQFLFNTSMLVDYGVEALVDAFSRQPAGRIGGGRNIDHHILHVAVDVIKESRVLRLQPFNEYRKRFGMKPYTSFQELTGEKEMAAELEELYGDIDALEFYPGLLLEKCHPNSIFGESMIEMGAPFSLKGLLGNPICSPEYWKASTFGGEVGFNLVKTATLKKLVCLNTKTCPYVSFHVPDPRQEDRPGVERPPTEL

[6] = molecular target: T2, Prostaglandin G/H synthase 2 (Ovis aries, UniProt P79208); test: Inhibition of ovine COX2 after 5 mins by enzyme immuno assay
T2 sequence (P79208 whole entry): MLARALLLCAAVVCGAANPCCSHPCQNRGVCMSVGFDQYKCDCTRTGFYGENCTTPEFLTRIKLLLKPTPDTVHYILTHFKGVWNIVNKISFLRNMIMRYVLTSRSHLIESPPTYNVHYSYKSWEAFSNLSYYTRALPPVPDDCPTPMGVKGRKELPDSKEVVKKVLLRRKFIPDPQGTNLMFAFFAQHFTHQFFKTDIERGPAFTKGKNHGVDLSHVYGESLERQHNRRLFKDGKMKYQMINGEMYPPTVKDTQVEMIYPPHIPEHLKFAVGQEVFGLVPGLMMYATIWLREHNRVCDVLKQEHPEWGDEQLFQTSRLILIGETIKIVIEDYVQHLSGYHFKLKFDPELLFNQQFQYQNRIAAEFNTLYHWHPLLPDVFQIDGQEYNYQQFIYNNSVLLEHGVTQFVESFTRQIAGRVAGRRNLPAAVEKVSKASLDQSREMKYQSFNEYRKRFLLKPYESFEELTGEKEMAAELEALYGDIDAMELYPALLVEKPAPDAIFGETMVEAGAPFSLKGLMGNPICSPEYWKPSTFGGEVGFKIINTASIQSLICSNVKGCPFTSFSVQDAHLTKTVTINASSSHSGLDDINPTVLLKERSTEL

Ovis aries = organism: Ovis aries; test: Selectivity index, ratio of IC50 for ovine COX1 to IC50 for ovine COX2
Serum = test: Induction of nitric oxide release in rat serum by Griess assay; type: functional
Rattus norvegicus [7] = test: Gastrointestinal toxicity in Wistar albino rat assessed as ulcer index at 10 mg/kg/day, po administered for 3 days measured after 2 hrs post last dose; type: organism-based; details: in vivo
Rattus norvegicus [8] = test: Gastrointestinal toxicity in Wistar albino rat assessed as ulceration at 10 mg/kg/day, po administered for 3 days measured after 2 hrs post last dose by haematoxylin/eosin staining-based microscopic analysis; type: organism-based; details: in vivo
Rattus norvegicus [9] = test: Gastrointestinal toxicity in Wistar albino rat assessed as ulcer index at 5 mg/kg/day, po administered for 3 days measured after 2 hrs post last dose; type: organism-based; details: in vivo
Rattus norvegicus [10] = test: Gastrointestinal toxicity in Wistar albino rat assessed as irregular mucosa at 5 mg/kg/day, po administered for 3 days measured after 2 hrs post last dose by haematoxylin/eosin staining-based microscopic analysis; type: organism-based; details: in vivo
Rattus norvegicus [11] = test: Gastrointestinal toxicity in Wistar albino rat assessed as ulceration at 5 mg/kg/day, po administered for 3 days measured after 2 hrs post last dose by haematoxylin/eosin staining-based microscopic analysis; type: organism-based; details: in vivo
Rattus norvegicus [12] = test: Gastrointestinal toxicity in Wistar albino rat assessed as mild erosion at 10 mg/kg/day, po administered for 3 days measured after 2 hrs post last dose by haematoxylin/eosin staining-based microscopic analysis; type: organism-based; details: in vivo
Rattus norvegicus [13] = test: Gastrointestinal toxicity in Wistar albino rat assessed as intact mucosa at 10 mg/kg/day, po administered for 3 days measured after 2 hrs post last dose by haematoxylin/eosin staining-based microscopic analysis; type: organism-based; details: in vivo

O=C(Nc1ccccc1)Nn1c(CO[N+](=O)[O-])nc2ccccc2c1=O
inhibition in vivo at 80 mg/kg (Rattus norvegicus [1]): 6.4% | inhibition in vivo at 80 mg/kg (Rattus norvegicus [2]): 25.8% | inhibition in vivo at 80 mg/kg (Rattus norvegicus [3]): 51.3% | inhibition in vivo at 80 mg/kg (Rattus norvegicus [4]): 82.9% | IC50 [5]: 24.4 µM | IC50 [6]: 5.93 µM | Ratio IC50 (Ovis aries): 4.11 | Activity (Serum): 22.8 µmol/L | UI (Rattus norvegicus [7]): 0.6 | Activity (Rattus norvegicus [8]): Non-toxic

Cc1ccc(S(=O)(=O)Nn2c(CO[N+](=O)[O-])nc3ccccc3c2=O)cc1
inhibition in vivo at 80 mg/kg (Rattus norvegicus [1]): 6.4% | inhibition in vivo at 80 mg/kg (Rattus norvegicus [2]): 15.7% | inhibition in vivo at 80 mg/kg (Rattus norvegicus [3]): 44.3% | inhibition in vivo at 80 mg/kg (Rattus norvegicus [4]): 71.6% | IC50 [5]: 38.8 µM | IC50 [6]: 11.7 µM | Ratio IC50 (Ovis aries): 3.32 | Activity (Serum): 10.4 µmol/L | UI (Rattus norvegicus [7]): 1 | Activity (Rattus norvegicus [8]): Toxic

Cc1ccc(S(=O)(=O)Nn2c(C)nc3ccccc3c2=O)cc1
inhibition in vivo at 80 mg/kg (Rattus norvegicus [1]): 3.2% | inhibition in vivo at 80 mg/kg (Rattus norvegicus [2]): 24.2% | inhibition in vivo at 80 mg/kg (Rattus norvegicus [3]): 51.9% | inhibition in vivo at 80 mg/kg (Rattus norvegicus [4]): 83.9% | IC50 [5]: 32.7 µM | IC50 [6]: 5.75 µM | Ratio IC50 (Ovis aries): 5.67

O=c1c2ccccc2nc(CO[N+](=O)[O-])n1NS(=O)(=O)c1ccccc1
inhibition in vivo at 80 mg/kg (Rattus norvegicus [1]): 2.4% | inhibition in vivo at 80 mg/kg (Rattus norvegicus [2]): 11.6% | inhibition in vivo at 80 mg/kg (Rattus norvegicus [3]): 34% | inhibition in vivo at 80 mg/kg (Rattus norvegicus [4]): 55% | IC50 [5]: 98.6 µM | IC50 [6]: 42.1 µM | Ratio IC50 (Ovis aries): 2.41 | Activity (Serum): 16.73 µmol/L | UI (Rattus norvegicus [7]): 0.5 | Activity (Rattus norvegicus [8]): Non-toxic

Cc1nc2ccccc2c(=O)n1NC(=O)NC1CCCCC1
inhibition in vivo at 80 mg/kg (Rattus norvegicus [1]): 12% | inhibition in vivo at 80 mg/kg (Rattus norvegicus [2]): 41.9% | inhibition in vivo at 80 mg/kg (Rattus norvegicus [3]): 54.8% | inhibition in vivo at 80 mg/kg (Rattus norvegicus [4]): 88.6% | IC50 [5]: 23.8 µM | IC50 [6]: 5 µM | Ratio IC50 (Ovis aries): 4.74

CC(=O)Nc1ccc(S(=O)(=O)Nn2c(C)nc3ccccc3c2=O)cc1
inhibition in vivo at 80 mg/kg (Rattus norvegicus [1]): 20.8% | inhibition in vivo at 80 mg/kg (Rattus norvegicus [2]): 37.4% | inhibition in vivo at 80 mg/kg (Rattus norvegicus [3]): 59.2% | inhibition in vivo at 80 mg/kg (Rattus norvegicus [4]): 95.7% | IC50 [5]: 22.8 µM | IC50 [6]: 4.41 µM | Ratio IC50 (Ovis aries): 5.16

COc1ccc2c(c1)c(CC(=O)O)c(C)n2C(=O)c1ccc(Cl)cc1 [INDOMETHACIN]
UI (Rattus norvegicus [9]): 1.8 | Activity (Rattus norvegicus [10]): Toxic | Activity (Rattus norvegicus [11]): Toxic

Cc1nc2ccccc2c(=O)n1NC(=O)NC(C)(C)C
inhibition in vivo at 80 mg/kg (Rattus norvegicus [1]): 10.4% | inhibition in vivo at 80 mg/kg (Rattus norvegicus [2]): 29.8% | inhibition in vivo at 80 mg/kg (Rattus norvegicus [3]): 51% | inhibition in vivo at 80 mg/kg (Rattus norvegicus [4]): 82.5% | IC50 [5]: 34.5 µM | IC50 [6]: 6.53 µM | Ratio IC50 (Ovis aries): 5.28

CC(C)(C)NC(=O)Nn1c(CO[N+](=O)[O-])nc2ccccc2c1=O
inhibition in vivo at 80 mg/kg (Rattus norvegicus [1]): 6.4% | inhibition in vivo at 80 mg/kg (Rattus norvegicus [2]): 14.1% | inhibition in vivo at 80 mg/kg (Rattus norvegicus [3]): 43.7% | inhibition in vivo at 80 mg/kg (Rattus norvegicus [4]): 70.6% | IC50 [5]: 44.6 µM | IC50 [6]: 12.5 µM | Ratio IC50 (Ovis aries): 3.57 | Activity (Serum): 10.76 µmol/L | UI (Rattus norvegicus [7]): 0.9 | Activity (Rattus norvegicus [12]): Toxic

Cc1cnc(NC(=O)C2=C(O)c3ccccc3S(=O)(=O)N2C)s1 [MELOXICAM]
inhibition in vivo at 80 mg/kg (Rattus norvegicus [1]): 20.8% | inhibition in vivo at 80 mg/kg (Rattus norvegicus [2]): 43.4% | inhibition in vivo at 80 mg/kg (Rattus norvegicus [3]): 61.9% | UI (Rattus norvegicus [7]): 0.6 | Activity (Rattus norvegicus [8]): Toxic

Cc1nc2ccccc2c(=O)n1NS(=O)(=O)c1ccccc1
inhibition in vivo at 80 mg/kg (Rattus norvegicus [1]): 5.6% | inhibition in vivo at 80 mg/kg (Rattus norvegicus [2]): 22.2% | inhibition in vivo at 80 mg/kg (Rattus norvegicus [3]): 47.8% | inhibition in vivo at 80 mg/kg (Rattus norvegicus [4]): 77.2% | IC50 [5]: 30.1 µM | IC50 [6]: 8.58 µM | Ratio IC50 (Ovis aries): 3.5

O=C(NC1CCCCC1)Nn1c(CO[N+](=O)[O-])nc2ccccc2c1=O
inhibition in vivo at 80 mg/kg (Rattus norvegicus [1]): 8% | inhibition in vivo at 80 mg/kg (Rattus norvegicus [2]): 18.7% | inhibition in vivo at 80 mg/kg (Rattus norvegicus [3]): 49.9% | inhibition in vivo at 80 mg/kg (Rattus norvegicus [4]): 80.6% | IC50 [5]: 34.6 µM | IC50 [6]: 6.86 µM | Ratio IC50 (Ovis aries): 5.03 | Activity (Serum): 28.53 µmol/L | UI (Rattus norvegicus [7]): 0.4 | Activity (Rattus norvegicus [13]): Non-toxic

CC(=O)Nc1ccc(S(=O)(=O)Nn2c(CO[N+](=O)[O-])nc3ccccc3c2=O)cc1
inhibition in vivo at 80 mg/kg (Rattus norvegicus [1]): 15.2% | inhibition in vivo at 80 mg/kg (Rattus norvegicus [2]): 40.4% | inhibition in vivo at 80 mg/kg (Rattus norvegicus [3]): 64.8% | inhibition in vivo at 80 mg/kg (Rattus norvegicus [4]): > 100% | IC50 [5]: 24.1 µM | IC50 [6]: 3.59 µM | Ratio IC50 (Ovis aries): 6.72 | Activity (Serum): 7.9 µmol/L | UI (Rattus norvegicus [7]): 1.3 | Activity (Rattus norvegicus [8]): Toxic

Cc1nc2ccccc2c(=O)n1NC(=S)Nc1ccccc1
inhibition in vivo at 80 mg/kg (Rattus norvegicus [1]): 14.4% | inhibition in vivo at 80 mg/kg (Rattus norvegicus [2]): 42.9% | inhibition in vivo at 80 mg/kg (Rattus norvegicus [3]): 61.9% | inhibition in vivo at 80 mg/kg (Rattus norvegicus [4]): 100% | IC50 [5]: 18.9 µM | IC50 [6]: 3.67 µM | Ratio IC50 (Ovis aries): 5.13
